From patent US20260048046A1, “METHOD FOR IMPROVING GROWTH PERFORMANCE IN FEEDLOT CATTLE” (Elanco US Inc., priority 2022, published 2026)

How the values were obtained:
[1] = test system: beef feedlot cattle; experiment: 56-d study: abnormal health observations and removals; format: in vivo
Experimental: This example describes a randomized complete block study that evaluated LUB dose (0, 1.5, 3.5, and 5.5 mg kg^−1 dry matter) during the last 56 d of the feeding period on live weight, carcass weight, and associated ratios in beef feedlot cattle. Carcass characteristics, mobility, and health were also evaluated. All cattle received monensin and tylosin throughout the study.
A randomized complete block design was used to evaluate the effects of LUB on calculated growth performance of 2,880 British and Continental European crossbred steers typical for U.S. feedlots. Bos indicus breeding was limited to less than ⅛. The study evaluated four
LUB doses: 0 (control, CON), 1.5, 3.5, and 5.5 mg·kg^−1 DM. There were 12 blocks, each block containing four replicate pens that started LUB feeding on the same date. Steers were randomized within each block of four pens with 60 steers per pen, resulting in a total of 720 steers enrolled in each treatment. LUB feeding started on Jun. 24, 2018, Jul. 1, 2018, and Jul. 15, 2018, four blocks on each date.
During the approximately 10 to 15 d acclimation phase and the entire treatment phase until cattle were loaded for slaughter, all animals were observed by trained caretakers at least once daily, but health issues were only noted by exception. All abnormalities were recorded even if considered common for feedlot cattle. Abnormal health observations were observations that the observer considered as 1) typical for beef cattle at that age, or 2) not causing undue pain or distress to the animal, and/or, 3) not impeding the animal's growth at the time the observation was made. Animals with abnormal health observations were allowed to remain in the study. Animals were allowed to receive concomitant therapies (e.g., antibiotic treatment for respiratory disease and treatment for bloat). Health observations requiring an animal to be classified as “removed” were abnormalities that the observer considered as 1) resulting in pain or distress to the animal, or 2) likely to result in further deterioration of the animal's health, and/or 3) impairing the animal's ability to access food or water at the time of the observation. Animals removed from the study during the treatment or withdrawal phase were penned separately in the research feedlot and tracked through slaughter to assure accountability of all cattle on study per food use authorization or were euthanized and necropsied. Decisions to remove an animal from treatment phase were made by the Investigator or Manager. Animals that were found dead at the time of the observation were removed from the pen as soon as practical and necropsied (if possible).
The label claim variable of cumulative NH3 gas emissions over the treatment period normalized by final BW (with d −59 BW as a covariate) for the period and HCW (g of gas kg^−1 of BW or g of gas kg^−1 HCW) was determined by utilizing NH3 gas emissions equations developed from the LUB clinical effectiveness study (FDA-FOI, 2018) and validated using animals of similar BW as described by Brown et al. (2019). The pen was the experimental unit for each outcome. Differences were deemed significant using a two-sided test at Ptrt≤0.05, however, a less stringent significance threshold of Ptrt≤0.10 was used for abnormal health observations. Fixed effect of treatment and random effects of time replicate and block within time replicate were included in the model. Discrete variables were analyzed using a generalized linear mixed model, Proc GLIMMIX SAS version 9.4 unless there were convergence problems due to sparseness of data. A binomial distribution was assumed and a logit link used in the analysis. Contrasts were constructed between the CON group and each non-CON dosage group, and differences were deemed significant at Pdose≤0.05. […]

[2] = test system: beef cattle; experiment: 91-d study: Warner-Bratzler shear force of striploin steaks; format: in vivo; conditions: 91-d treatment, LS mean, shear force after 14-d aging
Experimental: Following chill, striploins (LM) were collected from three randomly selected cattle/CPE and shipped to the University of Illinois Meat Science Laboratory for Warner-Bratzler shear force (WBSF) determination. At the laboratory, the anterior end of the striploin was fabricated into 2.54-cm steaks, vacuum packaged, and aged at 4° C. until 14-d postmortem. Steaks were frozen after aging, and then thawed at 4° C. for 24 h before being cooked on a Farberware Open Hearth electric broiler (Farberware, Bronx, NY). Copper-constantan Type-T thermocouples (Omega Engineering. Stamford, CT) connected to a digital scanning thermometer (Barnant Co., Barington, IL) were used to monitor internal temperature, and each steak was flipped a single time when the internal temperature reached 35° C. The steaks were removed from the grill when a temperature of 70° C. was achieved and cooled to ˜25° C. before six cores (1.25 cm diameter) were removed parallel to muscle fiber orientation. Cores were sheared perpendicular to the muscle fibers using a Texture Analyzer TA.HD Plus (Stable Microsystems, Godalming. UK) equipped with a WBSF attachment, and the peak WBSF measurement was averaged over all 6 cores to obtain a single shear force measurement (kg of force) for each steak.

[3] = Lubabegron 1.5 mg·kg^−1 DM, 56 d, 720 hd per treatment
[4] = Lubabegron 3.5 mg·kg^−1 DM, 56 d, 720 hd per treatment
[5] = Lubabegron 5.5 mg·kg^−1 DM, 56 d, 720 hd per treatment

SMILES: CC(C)(Cc1ccc(Oc2ncccc2C#N)cc1)NC[C@H](O)COc1ccccc1-c1cccs1 [LUB, 2-{4-[2-({(2S)-2-Hydroxy-3-[2-(2-thienyl)phenoxy]propyl}amino)-2-methylpropyl]phenoxy}nicotinonitrile]
- Abnormal health observations and animal removals, between-treatment differences ([1]; CON, 1.5, 3.5, 5.5 mg·kg^−1, 56 d, Ptrt>0.10): No significant (Ptrt>0.10) between-treatment differences
- Bloat (gastrointestinal), rate [1, 3]: 0.1%
- Bloat (gastrointestinal), total number [1, 3]: 1
- Dead (animals found dead), rate [1, 3]: 0.3%
- Dead (animals found dead), total number [1, 3]: 2
- Lameness (musculoskeletal), rate [1, 3]: 1.3%
- Lameness (musculoskeletal), total number [1, 3]: 9
- Removals (found dead and removed during treatment phase), rate [1, 3]: 2.5%
- Removals (found dead and removed during treatment phase), total number [1, 3]: 18
- Bloat (gastrointestinal), rate [1, 4]: 0.6%
- Bloat (gastrointestinal), total number [1, 4]: 4
- Dead (animals found dead), rate [1, 4]: 0.7%
- Dead (animals found dead), total number [1, 4]: 5
- Lameness (musculoskeletal), rate [1, 4]: 0.4%
- Lameness (musculoskeletal), total number [1, 4]: 3
- Removals (found dead and removed during treatment phase), rate [1, 4]: 1.5%
- Removals (found dead and removed during treatment phase), total number [1, 4]: 11
- Bloat (gastrointestinal), rate [1, 5]: 0.3%
- Bloat (gastrointestinal), total number [1, 5]: 2
- Lameness (musculoskeletal), rate [1, 5]: 1.0%
- Lameness (musculoskeletal), total number [1, 5]: 7
- Pneumonia (respiratory), rate [1, 5]: 0.3%
- Pneumonia (respiratory), total number [1, 5]: 2
- Removals (found dead and removed during treatment phase), rate [1, 5]: 1.8%
- Removals (found dead and removed during treatment phase), total number [1, 5]: 13
- 14-dWBSP ([2]; LUB 1.38 mg·kg^−1 DM): 2.79 kg
- 14-dWBSP ([2]; LUB 5.5 mg·kg^−1 DM): 2.92 kg
- 14-dWBSP ([2]; LUB 22.0 mg·kg^−1 DM): 2.75 kg
